From paper PMC6499206, “Quantification of Volatile Metabolites Derived From Garlic (Allium sativum) in Human Urine” (Frontiers in Nutrition, 2019)

Assay: Quantification of garlic-derived metabolites in human urine after ingestion of 3 g raw garlic (SIDA, SAFE, HRGC-MS / HRGC-GC-MS)
Format: in vivo
Details: 3 g raw garlic
Source text: Human urine samples were obtained from 18 volunteers (age 22–38 years, mean 27 years; 11 females, 7 males); thereby, one volunteer conducted the whole experimental series twice. At the time of examination, volunteers reported no known illness that might have potentially influenced the metabolism or the excretion of urine. The test persons were instructed to avoid foods that were rich in sulfur-containing substances at the testing day as well as 2 days preceding the testing day, namely garlic, onion, wild garlic, chives, cabbage, and leek, and were only allowed to consume the garlic sample provided in the course of the experiments. Additionally, subjects were asked to keep records of the food (including food supplements) and beverages they consumed during these 3 testing days. Generally, the overall panelists' requirements were in accordance with our previous studies ([5], [16]).
On the sampling day, the outer garlic cloves of a whole garlic bulb were peeled and cut into ~3 mm cubes by using a garlic cutter (Genius GmbH, Limburg/Lahn, Germany). Subsequently these cubes were thoroughly mixed and aliquoted into 3 g portions. Three to four test persons conducted the experiment at the same day. Each test person was asked to ingest a garlic portion of 3 g. In total, eight consecutive urine samples were provided by each test person, comprising one whole urine set. The samples were collected in sterile brown glass bottles, with sampling times as follows: one sample was provided directly prior to garlic consumption. The series of the second to eighth sample was then obtained at about 0.5, 1, 2, 4, 6, 8, and 24 h after garlic consumption, respectively. Between the first urine sample (prior to garlic consumption) and the seventh urine sample (8 h after garlic consumption) test persons only spent urine at the specific time points mentioned before. Another sample was provided at the next morning (24 h after garlic consumption). Between the samples provided 8 and 24 h after garlic consumption no urine was collected. All samples were immediately placed into a −80°C freezer and were kept frozen until further analysis.
The samples of each set were termed according to their sampling time. The following list provides the time intervals that are related to the respective sample name: • - pre: before garlic consumption • - 0.5 h post: 0.4–0.8 h after garlic consumption • - 1 h post: 0.9–1.3 h after garlic consumption • - 2 h post: 1.8 h−2.2 h after garlic consumption • - 4 h post: 3.8–4.4 h after garlic consumption • - 6 h post: 5.8–6.4 h after garlic consumption • - 8 h post: 7.8–8.4 h after garlic consumption • - 24 h post: 23.8–25.6 h after garlic consumption
A creatinine kit (Labor+Technik Eberhard Lehmann GmbH, Berlin, Germany) was used to determine the creatinine content in each urine sample. The determination principle of this kit is based on the reaction of creatinine with picric acid under basic conditions (Jaffé reaction). The formed complex was detected photometrically at a wavelength of 492 nm.
For quantification purposes, the deuterated standards ^2H3-AMS, ^2H3-AMSO, and ^2H3-AMSO2 were added to the sample and stirred for 10 min. Subsequently, DCM was added in a ratio of 1:2 (DCM/human urine; v/v) and this solution was stirred for further 30 min at room temperature. To isolate the volatile fraction from the urine samples we then applied SAFE-distillation ([17]), thereby distilling the respective samples at 50°C. After completion of the distillation process, 10 mL of DCM were applied in each case to rinse the SAFE apparatus and to ensure complete transition of the volatile compounds. This process was repeated with another 10 mL of DCM. After thawing, the obtained aqueous distillate phase was extracted three times with 25 mL DCM. The organic phases were combined, dried over anhydrous Na2SO4 and concentrated to a total volume of 100 μL by means of Vigreux distillation and subsequent micro-distillation at 50°C. […]

metabolite concentration in urine (U IV, 6 h post (6.08 h)): 63.5 µg/kg
metabolite concentration in urine, creatinine-normalized (U IV, 6 h post (6.08 h)): 4.6 µg/mmol creatinine
metabolite concentration in urine (U IV, 8 h post (8.05 h)): 31.9 µg/kg
metabolite concentration in urine, creatinine-normalized (U IV, 8 h post (8.05 h)): 6.7 µg/mmol creatinine
metabolite concentration in urine (U IV, 24 h post (24.03 h)): 3.8 µg/kg
metabolite concentration in urine, creatinine-normalized (U IV, 24 h post (24.03 h)): 0.4 µg/mmol creatinine
metabolite concentration in urine (U IV, pre (-0.05 h)): < LOD^2
metabolite concentration in urine, creatinine-normalized (U IV, pre (-0.05 h)): < LOD^2
metabolite concentration in urine (U IX, 0.5 h post (0.67 h)): 164.4 µg/kg
metabolite concentration in urine, creatinine-normalized (U IX, 0.5 h post (0.67 h)): 156.1 µg/mmol creatinine
metabolite concentration in urine (U IX, 1 h post (1.17 h)): 332.3 µg/kg
metabolite concentration in urine, creatinine-normalized (U IX, 1 h post (1.17 h)): 344.1 µg/mmol creatinine
metabolite concentration in urine (U IX, 2 h post (1.83 h)): 337.6 µg/kg
metabolite concentration in urine, creatinine-normalized (U IX, 2 h post (1.83 h)): 320.5 µg/mmol creatinine
metabolite concentration in urine (U IX, 4 h post (4.17 h)): 293.5 µg/kg
metabolite concentration in urine, creatinine-normalized (U IX, 4 h post (4.17 h)): 56.6 µg/mmol creatinine
metabolite concentration in urine (U IX, 6 h post (6.08 h)): 182.9 µg/kg
metabolite concentration in urine, creatinine-normalized (U IX, 6 h post (6.08 h)): 57.5 µg/mmol creatinine
metabolite concentration in urine (U IX, 8 h post (8.08 h)): 100.1 µg/kg
metabolite concentration in urine, creatinine-normalized (U IX, 8 h post (8.08 h)): 7.2 µg/mmol creatinine
metabolite concentration in urine (U IX, 24 h post (24.00 h)): 30.4 µg/kg
metabolite concentration in urine, creatinine-normalized (U IX, 24 h post (24.00 h)): 3.5 µg/mmol creatinine
metabolite concentration in urine (U IX, pre (-0.08 h)): < LOD^2
metabolite concentration in urine, creatinine-normalized (U IX, pre (-0.08 h)): < LOD^2
metabolite concentration in urine (U V, 0.5 h post (0.50 h)): 84.4 µg/kg
metabolite concentration in urine, creatinine-normalized (U V, 0.5 h post (0.50 h)): 123.5 µg/mmol creatinine
metabolite concentration in urine (U V, 1 h post (1.00 h)): 122.6 µg/kg
metabolite concentration in urine, creatinine-normalized (U V, 1 h post (1.00 h)): 146.3 µg/mmol creatinine
metabolite concentration in urine (U V, 2 h post (2.00 h)): 104.6 µg/kg
metabolite concentration in urine, creatinine-normalized (U V, 2 h post (2.00 h)): 124.9 µg/mmol creatinine
metabolite concentration in urine (U V, 4 h post (4.00 h)): 104.9 µg/kg
metabolite concentration in urine, creatinine-normalized (U V, 4 h post (4.00 h)): 34.0 µg/mmol creatinine
metabolite concentration in urine (U V, 6 h post (6.00 h)): 68.8 µg/kg
metabolite concentration in urine, creatinine-normalized (U V, 6 h post (6.00 h)): 13.8 µg/mmol creatinine
metabolite concentration in urine (U V, 8 h post (8.00 h)): 29.0 µg/kg
metabolite concentration in urine, creatinine-normalized (U V, 8 h post (8.00 h)): 13.4 µg/mmol creatinine
metabolite concentration in urine (U V, 24 h post (24.00 h)): 1.9 µg/kg
metabolite concentration in urine, creatinine-normalized (U V, 24 h post (24.00 h)): 0.3 µg/mmol creatinine
metabolite concentration in urine (U V, pre (-0.05 h)): < LOD^2
metabolite concentration in urine, creatinine-normalized (U V, pre (-0.05 h)): < LOD^2
metabolite concentration in urine (U VI, 0.5 h post (0.50 h)): 193.1 µg/kg
metabolite concentration in urine, creatinine-normalized (U VI, 0.5 h post (0.50 h)): 88.3 µg/mmol creatinine
metabolite concentration in urine (U VI, 1 h post (1.00 h)): 203.5 µg/kg
metabolite concentration in urine, creatinine-normalized (U VI, 1 h post (1.00 h)): 169.6 µg/mmol creatinine
metabolite concentration in urine (U VI, 2 h post (2.00 h)): 143.4 µg/kg
metabolite concentration in urine, creatinine-normalized (U VI, 2 h post (2.00 h)): 129.2 µg/mmol creatinine
metabolite concentration in urine (U VI, 4 h post (4.00 h)): 134.9 µg/kg
metabolite concentration in urine, creatinine-normalized (U VI, 4 h post (4.00 h)): 39.0 µg/mmol creatinine
metabolite concentration in urine (U VI, 6 h post (6.00 h)): 188.9 µg/kg
metabolite concentration in urine, creatinine-normalized (U VI, 6 h post (6.00 h)): 35.0 µg/mmol creatinine
metabolite concentration in urine (U VI, 8 h post (8.00 h)): 79.0 µg/kg
metabolite concentration in urine, creatinine-normalized (U VI, 8 h post (8.00 h)): 15.8 µg/mmol creatinine
metabolite concentration in urine (U VI, 24 h post (24.17 h)): 139.8 µg/kg
metabolite concentration in urine, creatinine-normalized (U VI, 24 h post (24.17 h)): 9.6 µg/mmol creatinine
metabolite concentration in urine (U VI, pre (-0.05 h)): < LOD^2
metabolite concentration in urine, creatinine-normalized (U VI, pre (-0.05 h)): < LOD^2
metabolite concentration in urine (U VII, 0.5 h post (0.50 h)): 133.2 µg/kg
metabolite concentration in urine, creatinine-normalized (U VII, 0.5 h post (0.50 h)): 125.0 µg/mmol creatinine
Structure (SMILES): C=CC[S+](C)[O-] (stereo not shown) [AMSO, allyl methyl sulfoxide]
